This note sets out measurements from patent US7985424B2, “Dendritic polymers with enhanced amplification and interior functionality” (Dendritic Nanotechnologies Inc., priority 2004, dated 2011).

The nature of data set [1]: Proton relaxivity analysis (variable field T1-T2 analyzer). The settings on record: Table IV; field strength varied from 1-64 MHz. In kind it is physicochemical. As for the experimental part: Relaxivity analysis was performed using a variable field T1-T2 analyzer. The field strength was varied from 1-64 MHz.
The Gd(III) content of the solutions was determined on a sequential, radially viewed Varian™ Liberty Series II ICPOES inductively coupled plasma optical emission spectrophotometer (Anderson Analytical, TX). Relaxivity analysis was performed using a variable field T1-T2 analyzer (University of Pittsburgh). The field strength was varied from 1-64 MHz. […] Relaxivity values for DTPA-Gd(III)-encapsulated dendrimers were similar to free DTPA-Gd(III).

The subject of a further data set is HEK 293 cells. Description: Membrane permeation of FITC-conjugated PEHAM dendrimer (fluorescence microscopy). In kind it is cell-based, human. The settings on record: monitored at 2, 5 and 24 hours, FIG. 13.

Protocol for HEK 293 cells: Fluorescence microscopy and phase contrast microscopy studies were performed using a Nikon Diaphot™ TMD microscope equipped with Nikon™ TMD-EF for fluorescence, along with a Nikon™ CoolPix 990 digital camera to capture the results.
HEK 293 cells were plated at 40% confluency in a 96-well plate (Becton Dickinson) in MEM (Fisher), containing 10% FBS (ISC BioExpress). […] Control wells included G=1 PEHAM dendrimer and FITC dye alone, at equivalent concentrations. The cells were incubated with the conjugate for 24 hours, with monitoring via fluorescence microscopy at 2, 5, and 24 hours. Prior to examination under the microscope, the cells to be analyzed were rinsed 2 times with PBS.

`O=C([O-])CN(CCN(CC(=O)[O-])CC(=O)O)CCN(CC(=O)[O-])CC(=O)O.[Gd+3]` [DTPA-Gd, diethylenetriaminepentaacetic acid, gadolinium(III)] displayed a Relaxivity (r1) in data set [1] of 4.2 mM⁻¹ s⁻¹.
fluorescein isothiocyanate [FITC]: the “membrane permeation / intracellular fluorescence” value with HEK 293 cells was “no intracellular fluorescence”.
